In PMC12332157, “A preclinical study on the influence of linkers in [^68Ga]Ga-NOTA-X-RM26 radiotracers for PET imaging of GRPR expression” (EJNMMI Research, 2025):
Starred links: 1 amine or outer side, 2 acyl side, 3 side chain; linkers in the order of their positions; H or OH if unused. Non-standard residues stand in square brackets, D forms with d. Residues, ends and D or L forms follow the SMILES beside them. *: point of attachment. NOTA = O=C(O)CN1CCN(CC(=O)O)CCN(CC(=O)*)CC1; Sta = CC(C)C[C@H](N)[C@@H](O)CC(=O)O; X2 = O=C(COc1cccc(CN[*:1])c1)[*:2]

Tested on: PC-3 xenografts
Experiment: PET/CT imaging of mice bearing PC-3 xenografts
Type: in vivo
Details: 2 h post injection, 100 pmol i.v.
Procedure: For PET/CT imaging, animals bearing PC-3 xenografts were used. The animals received a single intravenous injection of the corresponding ^68Ga-radiolabeled peptide (100 pmol, 1.2 MBq) and 2 h post injection they were euthanized using CO2. For image acquisition, Nano PET 3T (PET/MRI) and nanoScan (SPECT/CT) (Mediso Medical Imaging Systems, Budapest, Hungary) tomographs were used. Reconstruction of the PET scans was conducted using Nucline nanoScan 3.04.014.0000 software. CT data were reconstructed using Filter Back Projection in Nucline 2.03 Software (Mediso Medical Imaging Systems Ltd., Budapest, Hungary). For their fusion, Nucline 2.03 Software was used, and PET images are presented as maximum intensity projections (MIP) with an equivalent color scale.

## CC(=O)N[C@@H](CCCCNC(=O)CN1CCN(CC(=O)O)CCN(CC(=O)O)CC1)C(=O)NCc1cccc(OCC(=O)N[C@H](Cc2ccccc2)C(=O)N[C@@H](CCC(N)=O)C(=O)N[C@@H](Cc2c[nH]c3ccccc23)C(=O)N[C@@H](C)C(=O)N[C@H](C(=O)NCC(=O)N[C@@H](Cc2c[nH]cn2)C(=O)N[C@@H](CC(C)C)[C@@H](O)CC(=O)N[C@@H](CC(C)C)C(N)=O)C(C)C)c1 [NOTA-mMA-RM26] (Ac-K(NOTA)[X2][dF]QWAVGH[Sta]L-NH2)
  uptake in PC-3 tumors on PET images: lower uptake
